Consider 16 compounds from article PMC11900313, “Exploring the Potential of Coumarin Derivatives on Serotonin Receptors 5-HT1A and 5HT2A” (International Journal of Molecular Sciences, 2025).

Assay [1] relates to 5-HT1A receptor. Also on record: method as in PMID 36769117. As to conditions: previous study; cited from earlier work.
The target in assay [2] is 5-HT2A receptor. The following applies: earlier study; cited from earlier work.
The target of assay [3] is 5-HT1A receptor. The following applies: earlier study; cited from earlier work.
Assay [4] deals with T1, 5-HT1A receptor (Rattus norvegicus, UniProt P19327).
T1 construct: from tissue; host or cells: Sprague-Dawley rat hippocampus membranes
T1 sequence (P19327 1-422): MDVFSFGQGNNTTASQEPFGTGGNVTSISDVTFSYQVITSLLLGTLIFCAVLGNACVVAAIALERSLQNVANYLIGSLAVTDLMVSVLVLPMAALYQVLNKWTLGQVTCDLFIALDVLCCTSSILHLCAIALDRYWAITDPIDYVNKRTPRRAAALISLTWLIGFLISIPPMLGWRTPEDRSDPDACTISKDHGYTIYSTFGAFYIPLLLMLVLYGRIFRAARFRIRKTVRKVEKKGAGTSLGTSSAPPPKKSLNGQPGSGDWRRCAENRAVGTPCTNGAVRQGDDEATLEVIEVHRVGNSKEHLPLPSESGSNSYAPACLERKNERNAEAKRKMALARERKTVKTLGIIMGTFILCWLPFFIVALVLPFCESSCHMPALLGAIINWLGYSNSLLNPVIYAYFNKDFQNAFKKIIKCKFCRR
The assay is described as follows: 5-HT1A competitive radioligand binding assay with [3H]8-OH-DPAT, hippocampal membranes. As to conditions: [3H]8-OH-DPAT, hippocampal membranes; 95% CI in brackets. Also on record: species or system Sprague–Dawley rats.
Experimental: (§1) Sprague–Dawley rats were decapitated under isoflurane anesthesia. Brains were rapidly removed and placed on ice. Hippocampi (for the 5-HT1A assay) or frontal cortices (for the 5-HT2A assay) were dissected on a Petri dish. The tissue from 10 rats was homogenized in 30 vol. homogenization buffer (50 mM Tris-HCl, pH = 4.7, 1 mM EDTA, 1mM dithiothreitol) with a hand held Teflon-glass homogenizer. The homogenate was centrifuged at 48,000× g at 4 °C for 15 min. The pellet was suspended and homogenized in homogenization buffer and incubated for 10 min at 36 °C. The centrifugation and suspension steps were repeated twice. The final pellet was homogenized in 5 vol. 50 mM Tris-HCl, pH = 7.4 buffer and stored at −80 °C for no longer than 6 months.
(§2) Non-specific binding was determined with 10 μM serotonin. The final DMSO concentration in the assay was 5%. After incubation, the reaction mixture was deposited with the FilterMate-96 Harvester (Revvity, Waltham, MA, USA) onto Unifilter® GF/C plates (Revvity, Waltham, MA, USA) presoaked in 0.4% PEI for 1 h. Each well was washed with 2 mL of 50 mM Tris-HCl (pH 7.4) buffer to separate bound ligands from free. Plates were left to dry overnight. Then, 35 µL of Microscint-20 scintillation fluid (Revvity, Waltham, MA, USA) was added to each filter well and left to equilibrate for 2 h. Filter-bound radioactivity was counted in a MicroBeta^2 LumiJet scintillation counter (Revvity, Waltham, MA, USA). Binding curves were fitted with one site non-linear regression. The binding affinity (Ki) for each compound was calculated from the EC50 values with the Cheng–Prusoff equation from two separate experiments.

In assay [5] the target is T1, 5-HT1A receptor. The experiment in a line: Antagonist activity at 5-HT1A receptors, [35S]GTPγS assay with 8-OH-DPAT stimulation. In kind it is biochemical, Sprague–Dawley rats. As to conditions: for IC50: antagonist activity, [35S]GTPγS.
Experimental: as §1
Then, hippocampal membrane homogenates (15 μg/mL) were added to each well, and the mixture was incubated for 90 min. at 37 °C in a total volume of 250 µL. Non-specific binding was determined with 10 µM of unlabeled GTPγS. The reaction was terminated by vacuum filtration onto GF/C Unifilter Plates (Revvity, Waltham, MA, USA) presoaked with 50 mM Tris-HCl (pH = 7.4) for 1 h with the FilterMate Harvester® (Revvity, Waltham, MA, USA). The samples were then rapidly washed with 2 mL of 50 mM Tris-HCl (pH = 7.4) buffer. The Unifilter plates were dried overnight at RT. After drying, 35 µL of EcoScint-20 scintillant (Revvity, Waltham, MA, USA) was added to each well. Radioactivity was counted in a Trilux MicroBeta^2 counter (Revvity, Waltham, MA, USA). […] The curves were fitted with a one-site non-linear regression model to determine inhibitory potency (IC50). The experiments were repeated twice.
The target of assay [6] is T2, 5-HT2A receptor (Rattus norvegicus, UniProt P14842).
T2 construct: from tissue; host or cells: Sprague-Dawley rat frontal cortex membranes
T2 sequence (P14842 whole entry): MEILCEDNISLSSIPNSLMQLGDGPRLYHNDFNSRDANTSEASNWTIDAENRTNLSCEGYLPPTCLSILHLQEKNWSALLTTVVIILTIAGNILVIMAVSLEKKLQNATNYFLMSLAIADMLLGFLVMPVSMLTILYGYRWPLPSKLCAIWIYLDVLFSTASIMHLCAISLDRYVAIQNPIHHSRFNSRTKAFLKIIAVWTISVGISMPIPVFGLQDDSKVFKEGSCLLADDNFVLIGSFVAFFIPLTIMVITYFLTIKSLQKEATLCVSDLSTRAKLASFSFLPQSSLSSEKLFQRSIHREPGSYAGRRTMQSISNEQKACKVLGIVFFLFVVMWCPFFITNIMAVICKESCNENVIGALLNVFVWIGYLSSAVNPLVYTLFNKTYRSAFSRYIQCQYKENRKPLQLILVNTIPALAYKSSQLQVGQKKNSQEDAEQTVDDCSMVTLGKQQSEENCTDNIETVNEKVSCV
The experiment in a line: 5-HT2A competitive radioligand binding assay with [3H]ketanserin, frontal cortex membranes. More on the design: species or system Sprague–Dawley rats.
Experimental: as §1, §2

Where [7] appears, read: 1 µM 8-OH-DPAT, 95% CI in brackets, read-out: 5-HT1A IC50 (µM, 95% CI).
[8] abbreviates: read-out: 5-HT2A Ki (nM, 95% CI).

Values joined by “and” are separate entries in the source; they are usually repeats but may differ in a detail not shown here. Equal values may be shown once. Read-outs that look alike come from different tables or passages of the source.

In the case of `COc1cccc(N2CCN(CCCCOc3cc4oc(=O)cc(C)c4cc3C(C)=O)CC2)c1` [6-acetyl-7-{4-[4-(3-methoxyphenyl)piperazin-1-yl]butoxy}-4-methylcoumarin], in the assay with 5-HT1A receptor [1], the “5-HT1A receptor activity (agonist/antagonist)” value is given as “agonist”.
As for `COc1ccccc1N1CCN(CCCOc2ccc3c(C)cc(=O)oc3c2C(C)=O)CC1` [8-acetyl-7-{3-[4-(2-methoxyphenyl)piperazin-1-yl]propoxy}-4-methylcoumarin], the Ki at 5-HT2A receptor [2] was 8 nM; on 5-HT1A receptor [3], 0.6 nM.
Consider `COc1ccccc1N1CCN(CC(O)COc2cc3oc(=O)cc(C)c3cc2C(C)=O)CC1` (centres unmarked) [Compound 1, 6-Acetyl-7-(2-hydroxy-3-(4-(2-methoxyphenyl)piperazin-1-yl)propoxy)-4-methyl-2H-chromen-2-one], for which the Ki on 5-HT1A receptor [4] was 243 nM; on 5-HT2A receptor [6] (setting [8]) it was 1850 nM. For the same compound, the IC50 on 5-HT1A receptor [5] (setting [7]) came to 331 µM.
Consider `COc1cccc(N2CCN(CC(O)COc3cc4oc(=O)cc(C)c4cc3C(C)=O)CC2)c1` (centres unmarked) [Compound 2, 6-Acetyl-7-(2-hydroxy-3-(4-(3-methoxyphenyl)piperazin-1-yl)propoxy)-4-methyl-2H-chromen-2-one], for which the Ki at 5-HT1A receptor [4] amounted to 196 nM; on 5-HT2A receptor [6] ([3H]ketanserin, frontal cortex membranes, 95% CI in brackets), 83 nM. In addition, on 5-HT1A receptor [5] (setting [7]), the IC50 is 58.5 µM and 59 µM.
As to `COc1ccccc1N1CCN(CC(O)COc2cc(=O)oc3ccccc23)CC1` (centres unmarked) [Compound 3, 4-(2-Hydroxy-3-(4-(2-methoxyphenyl)piperazin-1-yl)propoxy)-2H-chromen-2-one], the values for the inhibitory constant (Ki) on 5-HT1A receptor [4] and at 5-HT2A receptor [6] (setting [8]) were 243 nM and 4010 nM, respectively. Besides, on 5-HT1A receptor [5] (setting [7]), the IC50 was 67.8 µM and 68 µM.
As for `COc1cccc(N2CCN(CC(O)COc3cc(=O)oc4ccccc34)CC2)c1` (centres unmarked) [Compound 4, 4-(2-Hydroxy-3-(4-(3-methoxyphenyl)piperazin-1-yl)propoxy)-2H-chromen-2-one], the values for the Ki on 5-HT1A receptor [4] and at 5-HT2A receptor [6] (setting [8]) were 190 nM and 315 nM, respectively. The IC50 at 5-HT1A receptor [5] (setting [7]) turned out to be 10 µM.
As to `COc1ccccc1N1CCN(CC(O)COc2cc(C)cc3oc(=O)cc(C)c23)CC1` (centres unmarked) [Compound 5, 5-(2-Hydroxy-3-(4-(2-methoxyphenyl)piperazin-1-yl)propoxy)-4,7-dimethyl-2H-chromen-2-one], the Ki on 5-HT1A receptor [4] is 90 nM; on 5-HT2A receptor [6] (setting [8]) it was 1180 nM. Also, the IC50 at 5-HT1A receptor [5] (setting [7]) was 14.7 µM.
For the compound `COc1cccc(N2CCN(CC(O)COc3cc(C)cc4oc(=O)cc(C)c34)CC2)c1` (centres unmarked) [Compound 6, 5-(2-Hydroxy-3-(4-(3-methoxyphenyl)piperazin-1-yl)propoxy)-4,7-dimethyl-2H-chromen-2-one], the Ki at 5-HT1A receptor [4] worked out at 176 nM; on 5-HT2A receptor [6] (setting [8]), 662 nM. Further, the IC50 on 5-HT1A receptor [5] (setting [7]) came out at 6.5 µM.
Taken in the same sequence, the figures for `COc1ccccc1N1CCN(CC(O)COc2c(C(C)=O)c(C)cc3oc(=O)cc(C)c23)CC1` (centres unmarked) [Compound 7, 6-Acetyl-5-(2-hydroxy-3-(4-(2-methoxyphenyl)piperazin-1-yl)propoxy)-4,7-dimethyl-2H-chromen-2-one] were 90 nM, 4150 nM and 2.4 µM.
The matching figures for `COc1cccc(N2CCN(CC(O)COc3c(C(C)=O)c(C)cc4oc(=O)cc(C)c34)CC2)c1` (centres unmarked) [Compound 8, 6-Acetyl-5-(2-hydroxy-3-(4-(3-methoxyphenyl)piperazin-1-yl)propoxy)-4,7-dimethyl-2H-chromen-2-one]: 1780 nM, 115 nM and 16.2 µM.
Regarding `COc1ccccc1N1CCN(CC(O)COc2ccc3c(C)cc(=O)oc3c2)CC1` (centres unmarked) [Compound 9, 7-(2-Hydroxy-3-(4-(2-methoxyphenyl)piperazin-1-yl)propoxy)-4-methyl-2H-chromen-2-one], the Ki on 5-HT1A receptor [4] is 245 nM; at 5-HT2A receptor [6] (setting [8]), 291 nM. Further, on 5-HT1A receptor [5] (setting [7]), the IC50 is 2.42 µM and 2.4 µM.
With `COc1cccc(N2CCN(CC(O)COc3ccc4c(C)cc(=O)oc4c3)CC2)c1` (centres unmarked) [Compound 10, 7-(2-Hydroxy-3-(4-(3-methoxyphenyl)piperazin-1-yl)propoxy)-4-methyl-2H-chromen-2-one], the Ki turned out to be 87 nM on 5-HT1A receptor [4] and 260 nM at 5-HT2A receptor [6] (setting [8]). Also, the IC50 on 5-HT1A receptor [5] (setting [7]) was determined as 89.5 µM.
With `COc1ccccc1N1CCN(CC(O)COc2ccc3c(C)cc(=O)oc3c2C(C)=O)CC1` (centres unmarked) [Compound 11, 8-Acetyl-7-(2-hydroxy-3-(4-(2-methoxyphenyl)piperazin-1-yl)propoxy)-4-methyl-2H-chromen-2-one], the IC50 on 5-HT1A receptor [5] (given in nM in text, read-out: 5-HT1A IC50) came to 0.043 µM. The 5-HT1A functional profile result on 5-HT1A receptor [5] (functional assays) was “significant 5-HT1A antagonistic profile”. The Ki on 5-HT2A receptor [6] (setting [8]) was determined as 6160 nM.
For the compound `COc1cccc(N2CCN(CC(O)COc3ccc4c(C)cc(=O)oc4c3C(C)=O)CC2)c1` (centres unmarked) [Compound 12, 8-Acetyl-7-(2-hydroxy-3-(4-(3-methoxyphenyl)piperazin-1-yl)propoxy)-4-methyl-2H-chromen-2-one], the values for the Ki at 5-HT1A receptor [4] and at 5-HT2A receptor [6] (setting [8]) were 264 nM and 67 nM, respectively.
`COc1ccccc1N1CCN(CC(O)COc2ccc3ccc(=O)oc3c2)CC1` (centres unmarked) [Compound 13, 7-(2-Hydroxy-3-(4-(2-methoxyphenyl)piperazin-1-yl)propoxy)-2H-chromen-2-one]: the figures for the inhibition constant (Ki) at 5-HT1A receptor [4] and at 5-HT2A receptor [6] (setting [8]) were 222 nM and 18 nM, respectively. Moreover, on 5-HT1A receptor [5] (setting [7]), the IC50 amounted to 1.43 µM.
Taken in the same sequence, the figures for `COc1cccc(N2CCN(CC(O)COc3ccc4ccc(=O)oc4c3)CC2)c1` (centres unmarked) [Compound 14, 7-(2-Hydroxy-3-(4-(3-methoxyphenyl)piperazin-1-yl)propoxy)-2H-chromen-2-one] were 135 nM, 68 nM and 112 µM.

What is called Ki is the equilibrium dissociation constant of an inhibitor or competing ligand from its target. By IC50 is commonly meant the concentration needed to halve the response being measured.
